Assay [1] addresses T1, Adenosine receptor A1 (Homo sapiens, UniProt P30542).
T1 sequence (P30542 whole entry): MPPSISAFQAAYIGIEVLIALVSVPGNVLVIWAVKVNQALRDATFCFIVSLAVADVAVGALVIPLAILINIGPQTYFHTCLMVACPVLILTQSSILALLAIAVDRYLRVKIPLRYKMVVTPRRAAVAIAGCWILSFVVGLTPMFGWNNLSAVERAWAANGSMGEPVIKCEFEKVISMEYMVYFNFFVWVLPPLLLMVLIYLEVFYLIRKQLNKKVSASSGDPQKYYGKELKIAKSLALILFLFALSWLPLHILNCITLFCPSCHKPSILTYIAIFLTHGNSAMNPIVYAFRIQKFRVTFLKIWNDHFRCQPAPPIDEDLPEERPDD
Put plainly: Displacement of [3H]R-PIA from human recombinant adenosine A1 receptor expressed in CHO cells after 60 mins by liquid scintillation counting. The assay is classed as cell-based.

Assay [2] addresses T2, Adenosine receptor A2a (Homo sapiens, UniProt P29274). Put plainly: Displacement of [3H]CGS21680 from human recombinant adenosine A2A receptor expressed in HEK293 cells at 10 uM after 60 mins by liquid scintillation counting. In kind it is cell-based.
Assay [3] addresses T3, Adenosine receptor A3 (Homo sapiens) (UniProt P0DMS8).
T3 sequence (whole entry): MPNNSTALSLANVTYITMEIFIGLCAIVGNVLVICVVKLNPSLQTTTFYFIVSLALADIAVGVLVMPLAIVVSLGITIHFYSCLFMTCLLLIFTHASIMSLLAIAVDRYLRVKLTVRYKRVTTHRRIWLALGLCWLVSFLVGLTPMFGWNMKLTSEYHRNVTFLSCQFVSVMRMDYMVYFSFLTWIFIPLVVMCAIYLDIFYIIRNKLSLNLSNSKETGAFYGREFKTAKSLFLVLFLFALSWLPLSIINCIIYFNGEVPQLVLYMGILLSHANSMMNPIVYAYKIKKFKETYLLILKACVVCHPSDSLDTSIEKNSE
Put plainly: Agonist activity at human recombinant adenosine A3 receptor expressed in CHO cells assessed as inhibition of forskolin-stimulated cAMP production at 10 uM incubated for 30 mins prior to forskolin-stimulation measured after 15 mins by enzyme immunoassay relative to NECA. In kind it is functional, cell-based.

The target of assay [4] is T4, Adenosine receptor A3 (Mus musculus, UniProt Q61618).
T4 sequence (Q61618 whole entry): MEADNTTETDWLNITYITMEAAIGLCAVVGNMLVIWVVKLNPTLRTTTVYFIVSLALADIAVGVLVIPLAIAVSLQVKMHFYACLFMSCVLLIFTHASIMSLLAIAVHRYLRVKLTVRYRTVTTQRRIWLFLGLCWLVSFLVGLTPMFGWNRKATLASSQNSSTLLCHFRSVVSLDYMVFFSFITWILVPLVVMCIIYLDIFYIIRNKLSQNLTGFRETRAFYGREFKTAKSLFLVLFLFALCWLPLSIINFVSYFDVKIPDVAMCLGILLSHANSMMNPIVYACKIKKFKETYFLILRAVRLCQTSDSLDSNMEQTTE
Put plainly: Displacement of [125I]I-AB-MECA from mouse adenosine A3 receptor expressed in HEK293 cells after 60 mins by liquid scintillation counting.

Assay [5] deals with T5, Adenosine receptor A1 (Mus musculus, UniProt Q60612).
T5 sequence (Q60612 whole entry): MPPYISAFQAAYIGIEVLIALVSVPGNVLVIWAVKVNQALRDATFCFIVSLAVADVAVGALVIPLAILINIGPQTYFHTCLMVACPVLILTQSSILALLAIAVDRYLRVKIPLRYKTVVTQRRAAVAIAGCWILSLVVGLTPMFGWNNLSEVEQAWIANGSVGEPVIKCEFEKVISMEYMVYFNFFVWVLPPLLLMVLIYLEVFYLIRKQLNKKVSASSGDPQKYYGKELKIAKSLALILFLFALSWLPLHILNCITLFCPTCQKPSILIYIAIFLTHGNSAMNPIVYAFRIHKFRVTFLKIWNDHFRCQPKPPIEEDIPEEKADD
Put plainly: Displacement of [125I]I-AB-MECA from mouse adenosine A1 receptor expressed in HEK293 cells after 60 mins by liquid scintillation counting.

The target in assay [6] is Adenosine receptor A2a (Mus musculus) (UniProt Q60613). Put plainly: Displacement of [3H]CGS21680 from mouse adenosine A2A receptor expressed in HEK293 cells at 10 uM after 60 mins by liquid scintillation counting.
Sequence of Adenosine receptor A2a (Mus musculus) (Q60613 whole entry): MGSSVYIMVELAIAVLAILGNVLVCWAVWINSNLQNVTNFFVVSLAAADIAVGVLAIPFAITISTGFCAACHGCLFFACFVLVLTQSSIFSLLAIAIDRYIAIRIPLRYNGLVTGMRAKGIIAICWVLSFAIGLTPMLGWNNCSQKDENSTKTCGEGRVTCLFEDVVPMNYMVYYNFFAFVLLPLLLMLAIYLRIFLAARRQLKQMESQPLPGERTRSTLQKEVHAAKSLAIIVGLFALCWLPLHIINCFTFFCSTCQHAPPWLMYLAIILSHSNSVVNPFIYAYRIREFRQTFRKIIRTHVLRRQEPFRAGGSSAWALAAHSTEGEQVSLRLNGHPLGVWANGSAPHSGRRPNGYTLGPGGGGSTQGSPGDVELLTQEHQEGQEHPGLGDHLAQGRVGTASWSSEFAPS
Assay [7] has as its target T6, Adenosine receptor A1 (Homo sapiens) (UniProt P30542).
T6 sequence (whole entry): T1 sequence (P30542 whole entry)
Put plainly: Displacement of [3H]R-PIA from human recombinant adenosine A1 receptor expressed in CHO cells at 10 uM after 60 mins by liquid scintillation counting. The assay is classed as cell-based.

Assay [8] deals with T2, Adenosine receptor A2a. Put plainly: Displacement of [3H]CGS21680 from human recombinant adenosine A2A receptor expressed in HEK293 cells after 60 mins by liquid scintillation counting. In kind it is cell-based.
Assay [9] concerns the target T7, Adenosine receptor A2b (Homo sapiens) (UniProt P29275).
T7 sequence (whole entry): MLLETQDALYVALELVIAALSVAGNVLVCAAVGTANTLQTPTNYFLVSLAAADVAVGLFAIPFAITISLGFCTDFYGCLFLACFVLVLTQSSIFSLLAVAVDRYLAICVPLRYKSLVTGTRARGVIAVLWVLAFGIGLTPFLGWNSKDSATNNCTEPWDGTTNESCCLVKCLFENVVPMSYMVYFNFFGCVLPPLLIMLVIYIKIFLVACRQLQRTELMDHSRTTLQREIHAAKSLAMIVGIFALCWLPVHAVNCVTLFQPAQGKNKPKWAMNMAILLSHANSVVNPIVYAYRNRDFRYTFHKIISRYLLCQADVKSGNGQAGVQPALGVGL
Put plainly: Agonist activity at human adenosine A2B receptor by cAMP accumulation assay relative to NECA. The assay is classed as functional.

Assay [10] addresses T8, Adenosine receptor A1 (Mus musculus) (UniProt Q60612).
T8 sequence (whole entry): T5 sequence (Q60612 whole entry)
Put plainly: Displacement of from mouse adenosine A1 receptor expressed in HEK293 cells at 10 uM after 60 mins by liquid scintillation counting. Also on record: reference not given here.

Assay [11] in a line: Selectivity ratio of Ki for mouse adenosine A3 receptor to Ki for human recombinant adenosine A3 receptor.
Assay [12] has as its target T9, Adenosine receptor A3 (Homo sapiens, UniProt P0DMS8).
T9 sequence (P0DMS8 whole entry): T3 sequence (whole entry)
Put plainly: Displacement of [3H]I-AB-MECA from human recombinant adenosine A3 receptor expressed in CHO cells after 60 mins by gamma counting. In kind it is cell-based.

T2 sequence (P29274 whole entry): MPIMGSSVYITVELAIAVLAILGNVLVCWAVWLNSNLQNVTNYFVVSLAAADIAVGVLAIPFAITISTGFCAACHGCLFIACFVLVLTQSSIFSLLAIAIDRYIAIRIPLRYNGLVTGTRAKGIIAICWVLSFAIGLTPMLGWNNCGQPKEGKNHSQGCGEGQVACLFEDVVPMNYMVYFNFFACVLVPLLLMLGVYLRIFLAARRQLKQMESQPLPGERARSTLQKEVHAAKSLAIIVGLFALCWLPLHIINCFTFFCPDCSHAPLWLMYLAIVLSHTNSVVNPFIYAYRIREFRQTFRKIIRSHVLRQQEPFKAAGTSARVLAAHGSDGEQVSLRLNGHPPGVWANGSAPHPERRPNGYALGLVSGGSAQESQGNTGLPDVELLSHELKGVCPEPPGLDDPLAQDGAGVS

With `CNC(=O)[C@@]12C[C@@H]1[C@@H](n1cnc3c(NCc4cccc(Cl)c4)nc(C#Cc4ccc(N)cc4)nc31)[C@H](O)[C@@H]2O`, the Ki is 1520 nM on Adenosine receptor A1 [1], 0.82 nM at Adenosine receptor A3 [4] and 261 nM at Adenosine receptor A1 [5]. Besides, the inhibition at Adenosine receptor A2a [2] worked out at 44%; in assay [6], 5%. Moreover, the Efficacy in assay [3] is 76.6%.
Turning to `CNC(=O)[C@@]12C[C@@H]1[C@@H](n1cnc3c(NC)nc(C#Cc4ccc(C(C)=O)cc4)nc31)[C@H](O)[C@@H]2O`, the inhibition in [7] is 15%. For the same compound, the Ki at Adenosine receptor A2a [8] was determined as 5300 nM. The Efficacy was determined as 87.4% in [3] and 20% in [9].
In the case of `CNC(=O)[C@@]12C[C@@H]1[C@@H](n1cnc3c(NCc4cccc(Cl)c4)nc(C#Cc4cccc(Cl)c4)nc31)[C@H](O)[C@@H]2O`, the results for the inhibition in assay [7], in assay [10] and in assay [6] were 4%, 35% and 55%, respectively. Moreover, the Ki at Adenosine receptor A2a [8] was 1740 nM; at Adenosine receptor A3 [4], 2.39 nM. For the same compound, the Efficacy in [3] was 91.5%; in [9], 20%.
Turning to `CNC(=O)[C@@]12C[C@@H]1[C@@H](n1cnc3c(NCc4cccc(Cl)c4)nc(C#Cc4ccc5ccc6cccc7ccc4c5c67)nc31)[C@H](O)[C@@H]2O`, the inhibition was found to be 8% in assay [7], 8% in assay [10] and 64% in [6]. In addition, the figures for the Ki on Adenosine receptor A2a [8] and at Adenosine receptor A3 [4] were 3110 nM and 47.6 nM, respectively. For the same compound, the Efficacy in assay [3] is 77.8%; in [9], 20%.
For the compound `CNC(=O)[C@@]12C[C@@H]1[C@@H](n1cnc3c(NCc4cccc(Cl)c4)nc(C#Cc4ccc(-c5ccccc5)cc4)nc31)[C@H](O)[C@@H]2O`, the inhibition in [7] came to 2%; on Adenosine receptor A2a [2] it was 0%; in assay [10] it was 41%; in assay [6], 6%. Besides, the Efficacy in [3] worked out at 89%. Further, in assay [11], the Ratio Ki amounted to 3. This compound also showed a Ki at Adenosine receptor A3 [4] of 10.8 nM.
For the compound `CNC(=O)[C@@]12C[C@@H]1[C@@H](n1cnc3c(NCc4cccc(Cl)c4)nc(C#Cc4cc5cccc6ccc7cccc4c7c65)nc31)[C@H](O)[C@@H]2O`, the inhibition is 11% in [7] and 4% at Adenosine receptor A2a [2]. Further, the Ki on Adenosine receptor A3 [12] amounted to 660 nM. In [3], the Efficacy came out at 97.1%.
